Values of other authors as cited in patent US10813968B2, “Method of treating a human suffering from post exercise muscle soreness” (Provexis Natural Products Limited, priority 2012, dated 2020).

Settings: 3 hours after supplementation supplying 200 μg folic acid

typical plasma folate concentration: 5 ng/mL
Structure (SMILES): Nc1nc2ncc(CNc3ccc(C(=O)N[C@@H](CCC(=O)O)C(=O)O)cc3)nc2c(=O)[nH]1 [folic acid]
